Measured values: patent publication US10201590B2, “Treatment of ocular disorders with anti-connexin proteins and mimetics” (CoDa Therapeutics, Inc., priority 2005, dated 2019)
“Also recorded” adds a separate entry of the source.

Tests used:
connexin hemichannels = molecular target: T1, connexin hemichannels (Rattus norvegicus, UniProt P08050); assay: Blockage of dye (Lucifer Yellow) uptake by cells in spinal cord slices; type: cell-based; conditions: 500 micromolar peptide, slices incubated four hours, then Lucifer Yellow 30 minutes
T1 construct: leads to the expression of connexin hemichannels; from tissue; host or cells: rat (Wistar p7) spinal cord, 500 micron slices in culture
T1 sequence (P08050 2-382): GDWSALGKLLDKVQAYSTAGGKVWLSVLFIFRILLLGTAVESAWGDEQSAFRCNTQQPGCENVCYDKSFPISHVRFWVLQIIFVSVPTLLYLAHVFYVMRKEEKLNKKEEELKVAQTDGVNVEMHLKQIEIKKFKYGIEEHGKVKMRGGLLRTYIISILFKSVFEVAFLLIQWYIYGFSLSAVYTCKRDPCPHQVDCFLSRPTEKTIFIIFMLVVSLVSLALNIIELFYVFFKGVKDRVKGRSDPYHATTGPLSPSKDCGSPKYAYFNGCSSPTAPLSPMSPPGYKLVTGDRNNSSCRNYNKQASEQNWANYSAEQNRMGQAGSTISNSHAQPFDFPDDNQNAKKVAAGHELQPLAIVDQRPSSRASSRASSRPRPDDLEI
Method: Two functional tests were carried out using peptides. These functional test were (i) blockage of dye (Lucifer Yellow) uptake by cells in spinal cord slices, and (ii) prevention of oedema in spinal cord segments (using connexin 43 specific antisense as a positive control). All peptides used were synthesised by Sigma-Genosys (Australia).
Lucifer Yellow is a small water soluble, fixable, dye able to pass from cell to cell via gap junction channels, but not across the cell membrane. The addition of Lucifer Yellow to the extracellular medium makes it is possible to check for the presence of open gap junction hemichannels. The dye will appear in the cytoplasm of cells which are expressing open channels.
Wistar p7 rats were anesthetized with carbon dioxide and immediately decapitated. The spinal cord was excised and transferred to cold Hank's balanced salt solution (HBSS) at pH 7.4. Excess branch nerves and ligaments were removed and the cord transferred to a manual tissue chopper and a series of 500 micron thick slices cut. The damage caused by the slicing induces connexin 43 upregulation through the entire slice (exacerbated by the gap junction mediated bystander effect), and leads to the expression of connexin hemichannels. Slices were placed onto 3 cm diameter Millipore inserts in 24 well plates and cultured in the presence of mimetic peptides in the media. The final concentration for all 9 peptides tested was 500 micromolar. Controls were; no peptide added, or with 1% ethanol or 1% DMSO added as some peptides were re-dissolved in these compounds (peptides were received lyophilised). Some slices were also treated at this time with connexin 43 specific antisense oligodeoxynucleotides in 30% Pluronic F-127 gel or with gel only, as control experiments.
Slices were incubated for four hours at 37 degrees C., and then 2.5 mg per ml Lucifer Yellow was added to each well for 30 minutes (in the dark). The tissues were then rinsed twice in PBS, with three further 10 minute washes, and the slices fixed with 4% paraformaldehyde. They were then viewed using a Leica TCS4D laser scanning confocal microscope to assess dye uptake into cells, or not.

spinal cord segments = assay: Prevention of oedema (swelling) in cultured spinal cord segments; type: cell-based, rat; conditions: for % swelling of cord segments: 500 micromolar peptide, 24 hours, control segments 21-23%
Method: FIGS. 1A and 1B show rat spinal cord segments 24 hours after placing into organotypic culture. In the control cord (FIG. 1A) significant swelling is observed at the cut ends (dotted lines mark the original cuts).
In both cases, the oedema can be blocked using antisense oligodexoynucleotides (ODNs) which prevent translation of the gap junction protein Connexin 43 (FIG. 1B).
The system described in Example 1 was used to examine the effects of the peptides VDCFLSRPTEKT (SEQ ID NO:35) and SRPTEKTIFII (SEQ ID NO:36) on cultured spinal cord segments to test their ability to block swelling.
The peptide QQPGCENVCYDK (SEQ ID NO:39) was used a negative control because it allowed dye uptake in the slice cultures described above, and was thus believed to not be able to block oedema in the segments. DMSO was again used as an additional control.
5 mm long spinal cord segments were placed in separate wells of a 24 well plate in HBSS. The segments were held to the bottom of the well using a small drop of Superglue. The HBSS was removed and 500 micromolar peptide (final concentration) added to media (no peptide for media alone or DMSO controls). The plates were incubated for 24 hours, the media removed and the tissue fixed with Bouin's fixative for 24 hours. Analysis involved photographing cord segments from above, with Image J used to calculate the total area of the cord segment compared with the area of swelling at the cut ends of the segments. Swelling (oedema) was calculated as (cultured area−original area divided by original area) to give % swelling. Single factor Analysis of Variance was used to determine statistical significance, with cut-off level for significance at p=0.05.
In this case a dose response was determined with final concentration of peptides used at 5, 10, 50 250 and 500 micromolar.

connexin 43 hemichannels = assay: Perinatal sheep model of cerebral ischaemia, i.c.v. infusion of mimetic peptide; type: in vivo
Method: The infusion in these animals was continued until 72 h after ischaemia. […] Seizures resolved by approximately 48 h.
Dosages of about 5 μmol/kg brain, 50 μmol/kg and 250 μmol/kg brain weight are also possible. For intravenous (systemic delivery) the effect of log-order increases in plasma concentrations can be used to determine an appropriate dose, starting with loading doses to achieve 0.5 μmol/L (mean fetal blood volume is approximately 350 ml in our perinetal sheep at this age), then 5, 10, 50, 250, 500 and 5000 μM.
A Romney-Suffolk cross fetal sheep was instrumented between 117 to 124 days of gestation (0.85 term) under general anaesthesia as described elsewhere in detail (Gerrits et al, Pediatr Res 57(3):342-6, (2005); Guan et al., Neuroscience 95(3):831-839, (1999); Guan et al., J Cereb Blood Flow Metab 21(5):493-502, (2001); Gunn et al., J Clin Invest 99(2):248-256, (1997), Gunn et al., Pediatrics 102(5):1098-1106, (1998), Gunn et al., Pediatr Res 46(3):274-280, (1999); Roelfsema et al., J Cereb Blood Flow Metab 24(8):877-886, (2004)). Instrumentation included brachial artery and vein catheters, EKG electrodes, an inflatable occluder around a fetal carotid artery (Gunn et al., 1997; Roelfsema et al., 2004), parietal EEG electrodes 5 and 15 mm anterior, and 10 mm lateral to bregma, a pair of electrodes placed lateral to these to measure cortical impedance (a measure of cytotoxic oedema (Gunn et al., 1997) and a 17-mm-long left i.c.v. cannula 4 mm anterior and 6 mm lateral to bregma. The instrumentation was exteriorised to the maternal flank, uterine and abdominal walls closed, and fetal vascular catheters heparinised (20 IU/ml). The maternal wound was infiltrated with a long acting local anaesthetic bupivacaine (100 mg/20 ml).
After 5 days recovery, fetal cerebral hypoperfusion was induced by a 30 minute period of bilateral carotid artery occlusion (Gunn et al., 1997; Roelfsema et al., 2004; Tan et al., Ann Neurol 32(5):677-682, (1992); Tan et al., Pediatr Res 39(5):791-797, (1996)). […]

[1] = tested on: glial fibrillary acidic protein (GFAP) expression; assay: Immunohistochemical analysis of GFAP (astrocytosis) in spinal cord segments; type: cell-based, rat; conditions: for Area of GFAP label: 24 hours, control 2450
Method: Table 7: Areas of GFAP label in images taken in spinal cord 24 hours after slicing. Control cords have high levels of GFAP indicating an inflammatory response and greater bystander effect than the treated segments.

[2] = near-term fetal sheep, i.c.v. infusion from 90 min after 30 min ischaemia until 72 h

FEVAFLLIQWI [connexin 43 mimetic peptide, M3 & E2]
dye (Lucifer Yellow) uptake / block of hemichannels (connexin hemichannels): comparable with control slices

LGTAVESAWGDEQ [connexin 43 mimetic peptide, M1 & E1]
dye (Lucifer Yellow) uptake / block of hemichannels (connexin hemichannels): comparable with control slices

LLIQWYIGFSL [connexin 43 mimetic peptide, E2]
dye (Lucifer Yellow) uptake / block of hemichannels (connexin hemichannels): comparable with control slices

QQPGCENVCYDK [connexin 43 mimetic peptide, E1; used as negative control]
% swelling of cord segments (spinal cord segments): 23%
dye (Lucifer Yellow) uptake / block of hemichannels (connexin hemichannels): comparable with control slices; also recorded: did not block hemichannels

QSAFRCNTQQPG [connexin 43 mimetic peptide, E1]
dye (Lucifer Yellow) uptake / block of hemichannels (connexin hemichannels): comparable with control slices

SLSAVYTCKRDPCPHQ [connexin 43 mimetic peptide, E2]
dye (Lucifer Yellow) uptake / block of hemichannels (connexin hemichannels): comparable with control slices

SRPTEKTIFII [connexin 43 mimetic peptide, E2 & M4]
blocking of oedema at middle range concentration (spinal cord segments; 50 micromolar, repeat experiments): somewhat less effective
% swelling of cord segments (spinal cord segments): 17%
most effective concentration for blocking of oedema (least oedema) (spinal cord segments; dose response 5, 10, 50 250 and 500 micromolar, vs media alone p=0.001): 5 µM
effect in perinatal sheep experiment (connexin 43 hemichannels; 5 μmol/kg brain weight in 1 ml artificial CSF i.c.v. over one hour, then 1 ml per day for 72 hours): significant effect
cortical impedance (cell swelling, cytotoxic oedema) (connexin 43 hemichannels; [2]): markedly delayed and attenuated rise in cerebral impedance
seizures after cerebral ischaemia (connexin 43 hemichannels; [2]): changed seizures from continuous to a later onset of discrete, separate seizure events
dye (Lucifer Yellow) uptake / block of hemichannels (connexin hemichannels): block hemichannels
dye (Lucifer Yellow) uptake / block of hemichannels (connexin hemichannels; listed as SEQ ID NO: 36): capable of preventing and/or blocking and/or closing the opening of the hemichannels
Area of GFAP label ([1]; 5 micromolar): 300 square units
Area of GFAP label ([1]; 50 micromolar): 950 square units
Area of GFAP label ([1]; 250 micromolar): 1000 square units
Area of GFAP label ([1]; 500 micromolar): 750 square units
astrocytosis (GFAP expression) ([1]; 24 hours in culture): reduced astrocytosis
most effective concentration at preventing the inflammatory response (GFAP) ([1]; 24 hours in culture): 5 µM

VCYDKSFPISHVR [connexin 43 mimetic peptide, E1]
dye (Lucifer Yellow) uptake / block of hemichannels (connexin hemichannels): comparable with control slices

VDCFLSRPTEKT [connexin 43 mimetic peptide, E2]
% swelling of cord segments (spinal cord segments): 15%
dye (Lucifer Yellow) uptake / block of hemichannels (connexin hemichannels): block hemichannels
dye (Lucifer Yellow) uptake / block of hemichannels (connexin hemichannels; listed as SEQ ID NO: 35): capable of preventing and/or blocking and/or closing the opening of the hemichannels
